From PubChem BioAssay (NCI)
“And” between values parts separate entries of the source, which are not always exact repeats. Identical values can stand only once.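 Tested at 5 concentrations; 48 h exposure; 96-well plates; endpoints linearly interpolated, else capped at highest concentration. GI50 is the concentration that inhibits growth by half. Definition used: TGI = concentration required for complete inhibition of growth.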

Experiments:
Experiment in all cases: DTP human tumour cell line panel, 48 h
[1] = tested on: MDA-MB-231 breast
[2] = tested on: K-562 leukemia
[3] = tested on: UO-31 renal
[4] = tested on: SNB-19 CNS
[5] = tested on: OVCAR-8 ovarian
[6] = tested on: EKVX NSCLC
[7] = tested on: DU-145 prostate
[8] = tested on: NCI-H23 lung
[9] = tested on: HCT-15 colon
[10] = tested on: M14 melanoma

Structure (SMILES) | GI50 [1] [nM] | TGI [1] | GI50 [2] [nM] | TGI [2] | GI50 [3] [nM] | TGI [3] | TGI [4] | GI50 [5] [nM] | TGI [5] [µM] | TGI [6] [µM] | GI50 [7] [nM] | TGI [7] | GI50 [8] [µM] | TGI [8] | GI50 [9] [nM] | TGI [9] | GI50 [10] [nM] | TGI [10] [µM] | GI50 [4] [µM] | GI50 [6] [nM]
CN(NC(=O)CC(=O)NN(C)C(=S)c1ccccc1)C(=S)c1ccccc1 | > 100000 | > 100 µM | 40800 | > 100 µM | 14600 | > 89.6 µM | > 100 µM | > 66700 | > 100 | > 100 | > 59200 | > 100 µM | > 87.4 | > 100 µM | 32100 | > 100 µM | > 73700 | > 100 | – | –
Cc1cc(C)c(O)c(CNCCCCCCNCc2cc(C)cc(C)c2O)c1 | 1380 | 2.9 µM | 1610 | 3.55 µM | 1420 | 2.83 µM | 4.59 µM | 2200 | 5.01 | 3.65 | 1700 | 3.3 µM | 1.7 | 3.28 µM | 1400 | 3.05 µM | 1720 | 3.59 | 1.98 | 1740
CC1(C)NCCC[C@]2(C)[C@H]3C=CC4=C5C[C@](C)(CO)CC[C@]5(C)CC[C@@]4(C)[C@]3(C)CC[C@@H]12 | 14500 | 29.3 µM | 3180 | 10.8 µM | 3590 | 15.7 µM | 25.3 µM | 2560 | 6.66 | 8.27 | 2250 | 5.02 µM | 3.15 | 12.5 µM | 4210 | 16.4 µM | 3910 | 14.8 | 11.6 | 2770
C=C1C[C@@H]2C/C=C/C(=O)C/C(C)=C\C=C\C(=O)O[C@H](C=O)C/C(C)=C/[C@H](C1)O2 | 3690 | 13.1 µM | 160 | > 40.2 µM | 3330 | 56.4 µM | 24.8 µM | 1490 | > 100 | 21.2 | 455 | 2.32 µM | 5.16 | 23.1 µM | 485 | 16.2 µM | 281 | 0.738 | 4.34 | 3680
S=c1nc(Oc2ccc(Cl)c(Cl)c2)[nH]c(=S)[nH]1 | – | > 100 µM | – | > 31.6 µM | – | 71.2 µM | > 100 µM | – | 97.4 | > 93.9 | – | > 100 µM | – | > 63.3 µM | – | > 100 µM | – | > 100 | – | –
c1ccc(C(=NNc2nc3ccccc3o2)c2ccccn2)nc1 | 69.3 | 21.6 µM and 17.7 µM | – | > 100 µM and 22.9 µM | 42.7 | 1.18 µM and 3.03 µM | > 46 µM and 33.7 µM | 38.9 | – | – | 77.5 | 19.4 µM and > 34.3 µM | 0.0617 | 26.6 µM and 27.9 µM | 37.6 | > 75.4 µM and 17.9 µM | 41.8 | – | – | 38.7
CC1(C)COCN1COC1CCCCC1 | – | > 100 µM | – | > 100 µM | – | > 100 µM | > 100 µM | – | > 100 | > 100 | – | > 100 µM | – | > 100 µM | – | > 100 µM | – | > 100 | – | –
COC1/C=C\C=C(/C)C(=O)Nc2cc3nc4ccc(Br)cc4oc-3c(c2=O)CC(C)CC(OC)C(O)C(C)/C=C(\C)C1OC(N)=O (stereo not given) | 32.1 | 11.5 µM | 0.503 | 7.03 µM | – | 4.05 µM | 29.4 µM | – | 14.5 | 25.9 | 4.03 | 18 µM | – | – | 5.83 | 6.99 µM | 4.14 | 5.33 | – | –
O=C1C(Cl)=C(Oc2ccc([N+](=O)[O-])cc2)C(=O)c2c(O)ccc(O)c21 | – | 66 µM | – | 40.3 µM | – | > 100 µM | > 100 µM | – | > 100 | > 100 | – | > 100 µM | – | > 100 µM | – | > 67.6 µM | – | > 69.2 | – | –
CN(C)CCCN=C(N)N | – | > 100 µM | – | > 100 µM | – | > 100 µM | > 100 µM | – | > 100 | > 100 | – | > 100 µM | – | > 100 µM | – | > 100 µM | – | > 100 | – | –
O=C1CCCCCCCC/C=C/CCC(c2ccco2)O1 (stereo not given) | 40000 | 97.6 µM | 35200 | > 100 µM | – | – | 60.7 µM | 88100 | > 100 | > 100 | 57200 | > 100 µM | > 100 | > 100 µM | > 100000 | > 100 µM | 67700 | > 100 | 24 | > 100000
Cc1ccccc1CN1CC2=C(CCN(Cc3ccccc3)C2=O)N2CCN=C12 | – | > 80 µM | – | > 100 µM | – | > 100 µM | > 100 µM | – | > 100 | > 100 | – | > 100 µM | – | > 100 µM | – | > 100 µM | – | > 100 | – | –
OCC(O)C(O)C(O)C1SC(c2ccccc2)=NN1c1ccccc1 (stereo not given) | – | > 91.6 µM | – | > 100 µM | – | > 100 µM | > 89.8 µM | – | > 100 | > 100 | – | > 100 µM | – | > 95.7 µM | – | > 100 µM | – | > 100 | – | –
O=C(NC1CC1)c1ccc(-c2nc3ccc4[nH]ncc4c3c3c2CCCC3)cc1 | 2060 | 31.8 µM | 1950 | > 50 µM | 1840 | 13.5 µM | > 50 µM | 2340 | > 50 | 12.2 | 2430 | 20.2 µM | 3.41 | 31.3 µM | 1580 | 13.9 µM | 2330 | 10.4 | 4.47 | 1330
COc1ccc(C2=NN(C(=O)COc3ccc(Cl)cc3)C(O)(c3cc(F)c(Cl)cc3Cl)C2)cc1OC (stereo not given) | 2410 | 6.53 µM | 1550 | 15.2 µM | 2080 | 5.14 µM | 25.8 µM | 5700 | 14.1 | 22.8 | 1250 | 3.73 µM | 4.74 | 17.8 µM | 1390 | 3 µM | 2180 | 6.5 | 11.7 | 10500
